In patent US9399032B2, “Methods and compositions for treating degenerative and ischemic disorders” (The General Hospital Corporation, priority 2009, dated 2016):
Counter-ions that a name gives are not always drawn.

Tests used:
[1] = test system: MCH58 fibroblasts; assay: Global gene expression profile and quantitative RT-PCR; assay type: cell-based, human
Description: Next, a global gene expression profile was performed on fibroblasts following a six hour meclizine treatment (i.e., a time point having maximal OXPHOS inhibition). Oligonucleotide microarray experiments were conducted as follows. Total RNA was extracted from ˜2 million MCH58 cells with RNeasy mini kit (Qiagen). Cells were either grown in 10 mM glucose or 10 mM galactose for 3 passages and for the drug treated samples, and treated with either 0.1% DMSO or 50 μM meclizine for 6 hours. 10 ug of RNA was used to synthesize cDNA with a T7-(dT)24 primer and the SuperScript one-cycle cDNA synthesis kit (Affymetrix). cRNA labeling, hybridization to human U133 plus 2.0 oligonucleotide array (Affymetrix, CA), washing and staining were performed as recommended by Affymetrix. For each condition, 3 biological replicates were used for the total of 6 arrays. GLS expression was confirmed by quantitative RT-PCR using TaqMan assay (Applied Biosystems).

[2] = test system: Glutaminase (GLS); assay: Western detection of Glutaminase (GLS) protein; assay type: cell-based; settings: Western blot
Description: To explore this hypothesis, activation of glycolysis via hypoxia inducible factor (HIF), a known transcriptional activator of glycolysis, was tested. HIF1-α and HIF2-α stabilization was assessed in HeLa cells by carrying out Western blot detection using anti-HIF1-α antibody (Cell Signaling Cat. No. 3716) and anti-HIF2-α antibody (Novus Biologicals). Protein was extracted from cells pre-treated with either 0.1% DMSO, 50 μM meclizine or 100 μM deferoxamine (Sigma Cat. No. D9533). Western detection of Glutaminase (GLS) was carried out on protein extracts from 293 cells using anti-GLS antibodies (gift from Dr. Javier Marquez, University of […], Spain).

[3] = test system: purified recombinant PCYT2; assay: PCYT2 enzyme assay in vitro; assay type: biochemical; settings: 50-1000 μM meclizine or 50-600 μM S-meclizine
Description: FIGS. 16 C-D are line graphs showing that PCYT2 (CTP:phosphoethanolamine cytidylyltransferase 2) is a target of meclizine (16C) and S-meclizine (16D). PCYT2 enzyme assays were carried out in vitro with purified recombinant PCYT2 in the presence of 50-1000 μM meclizine or 50-600 μM of S-meclizine.
CTP:Phosphoethanolamine Cytidylyltransferase (PCYT2) catalyzes the formation of CDP-ethanolamine, which is often the rate regulatory step in the PE-Kennedy pathway. See, e.g., Fullerton et al., J Biol Chem 18; 284(38):25704-13 (2009). To determine whether meclizine affects PCYT2 activity, PCYT2 (CTP:phosphoethanolamine cytidylyltransferase 2) enzyme assays were carried out in vitro with purified recombinant PCYT2 in the presence of 50-1000 μM meclizine or 50-600 μM of S-meclizine. For additional details see Zhu et al., J Lipid Res 49: 2197 (2008).

[4] = test system: C. elegans expressing 128Q huntingtin fragment in touch receptor neurons; assay type: in vivo
Description: Meclizine was also tested in an animal model of Huntington's disease. Transgenic C. elegans touch receptor neurons express an N-terminal fragment of huntingtin (htt) comprising 128 glutamine repeats, as opposed to seventeen glutamine repeats in the wild type protein. These neurons show polyQ-dependent neuronal dysfunction resulting in defective posterior mechanosensation. Parker et al., Nat Genet 37:349 (2005) Animals co-expressing YFP and N-terminal htt fused to CFP in touch receptor neurons were used for drug testing. See, eg., Parker et al., Proc Natl Acad Sci USA 98:13318 (2001). Synchronized L1 larvae, obtained by hypochlorite extraction, were incubated with drugs in 96 wells plates in 50 μl M9 medium with OP-50 bacteria and […] streptomycin, at 20° C. during 3 days as previously described. Three independent assays were performed and a minimum of 100 worms were tested per dose.
Worms were treated with DMSO or 33 μM meclizine for 3 days. Animals were considered as touch responsive if they reacted after light touch (e.g., by initiating a backward movement). Out of 3 touches, 2 or 3 reactions were regarded as responsive, and 0 or 1 reaction was regarded as unresponsive. Htt aggregation and axonal morphology in PLM neurons were scored using light microscopy as previously described (Parker et al., Proc Natl Acad Sci USA 98:13318 (2001)). Htt aggregation was scored using CFP fluorescence, axonal dystrophy was quantified using YFP fluorescence to detect axonal swelling.
Protein quantity was normalized using an anti-actin antibody (MP Biochemicals 69100).

[5] = test system: UAS-Htt-Q128/elav-GAL4 flies; assay: Transgenic Drosophila melanogaster model of Huntington's disease; assay type: in vivo; settings: 33 μM, 10 days
Description: Meclizine was also tested in a transgenic insect model of Huntington's disease in which the first 548 amino acids of human Htt (containing 128 glutamines) was expressed in the […] of Drosophila melanogaster. The UAS-Htt-Q0 and UAS-Htt-[…] lines encoding the first 548 amino acids of human Htt containing either 0 or 128 glutamines, respectively (7), were gifts from Troy Littleton. The elav-GAL4 driver was from the Bloomington Stock Center (#8765). The UAS-Htt-[…] line was crossed to elav-GAL4/CyO to obtain […] flies. Equal numbers of newly enclosed UAS-[…] flies were added to vials containing Carolina Biological Instant Fly food that had been freshly made up with water and meclizine or DMSO vehicle at different concentrations (100, 33, 11 or 3 μM). Flies were changed to fresh food and drug every 2 days and were maintained at 25° C. throughout the experiment. Neurodegeneration was assessed using the pseudopupil technique at day 10 by scoring the rhabdomere number/ommatidium from at least 8 animals for each condition; see Jackson et al., Neuron 21:633 (1998). The experiment was performed twice and scoring was conducted in a blinded manner. Western blot analysis using mouse anti-human HD (mAb2216 from Chemicon, Temecula, Calif.) was performed using lysates from UAS-[…] adult flies that had been fed on either meclizine or DMSO at 33 μM for 10 days.

[6] = test system: Immortalized mouse striatal 20A5 cells; assay: Oxygen and glucose deprivation model of ischemia and reperfusion; assay type: cell-based; settings: 25 μM pretreatment for 8 hours, over vehicle
Description: Immortalized mouse striatal 20A5 cells grown in DMEM with 10% dialyzed fetal bovine serum were exposed to oxygen and glucose deprivation for 18 hours followed by 12 hours of recovery in normoxia with full media. This IR model induces roughly 30% decrease in cell viability as measured by the ATP luminescence assay CellTiter-GLO.

[7] = test system: male C57BL/6 mice; assay: Murine model of stroke (transient middle cerebral artery occlusion); assay type: in vivo, mouse
[8] = test system: MCH58 fibroblasts; assay: Glucose versus galactose cell growth screen (metabolic state-dependent lethality); settings: approximately 10 μM compound, 72 hours; log10 fold change of normalized cell number in glucose versus galactose
Description: The assay included monitoring or measuring cell growth in cells that are grown in glucose (which allows the cell to utilize glycolysis) or in galactose (which switches the cell energy production from glycolysis to the OXPHOS pathway).
The high glucose medium was replaced with 10 mM glucose or 10 mM galactose wherever indicated. All media contained 1 mM pyruvate and 4 mM glutamine.
Cell number quantification high throughput assays were performed as follows. […] 24 hours later, cells were washed twice in PBS and media was replaced with either 10 mM glucose or 10 mM galactose containing media.
Approximately 100 nL of each compound was pin-transferred in duplicate into the plates with a steel pin array using the CyBi-Well robot (CyBio). […] Compound-treated plates were incubated at 37° C. for 72 hours. […] Wells were then washed once and stored in PBS. Cell culture plates were stored at 4° C. until time of imaging, which was at most 24 hours after fixation.
Imaging was performed by Arrayscan VTi automated microscope (ThermoFisher Scientific) with the use of an automated plate stacker. Appropriate filter sets for the detection of the Hoescht fluorescent signal were used. Four non-overlapping images at 5× magnification (NA 0.25) were acquired for a field of view of 1.3 mm×1.3 mm per image. The plate stacker and microscope including an auto-focusing algorithm were controlled entirely with ArrayScan software. Images were captured and stored simultaneously in at least two independent locations. Image analysis was performed using the freely available open-source software package CellProfiler. […] Images were analyzed individually by first identifying nuclei using the Hoescht staining signal.
Total number of nuclei per field were recorded, and the four images per well were totaled to give the cell count per well. Computation was performed using a UNIX computer cluster. Appropriate masking of each nucleus was ensured by visually monitoring each batch at its onset and intermittently throughout the run.
The fibroblast cells were seeded on Day 0 and incubated for 24 hours in standard culture media.
Normalized cell counts were computed separately for each 96-well plate by dividing the cell count of each well with the trimmed mean (the average after discarding the largest and smallest value) of the cell counts for the 16 DMSO treated wells. […] The remaining replicate measurements were averaged, and fold changes were computed as the ratio between the average normalized counts for the glucose and galactose screens. To evaluate statistical significance, Z-scores were computed for each well against the DMSO (null) distribution and averaged Z-scores across replicates. Wells with average Z-score greater than 2.5 were considered significant.
By jointly analyzing the glucose and galactose results, a glucose-galactose cell growth ratio can be calculated (Sglu/gal) that represents the log10 fold-change in cell growth in a glucose rich media divided by the log10 fold-change in cell growth in a galactose rich media. […] Low Sglu/gal scores (e.g., ranging between approximately (−) 0.1 to (−) 0.7) may arise from inhibition of glycolysis or from inhibition of proliferation, since cells grown in glucose-rich media divide more rapidly.

Q: Which results are given for Cc1cccc(CN2CCN(C(c3ccccc3)c3ccc(Cl)cc3)CC2)c1 (racemic) [Meclizine, meclizine hydrochloride]?
A: HK2 expression fold change ([1]; 50 μM, 6 hours): 1.5 fold; TXNIP expression downregulated ([1]; 50 μM, 6 hours): 35%; GLS expression downregulated (microarray) ([1]; 50 μM, 6 hours, relative to vehicle): ~40%; reduction in GLS transcript by quantitative real-time PCR ([1]; 6 hours of treatment): 50%; GLS protein level [2]: not reduced; PCYT2 binding and inhibition [3]: binD to, and inhibit; PolyQ protein aggregation ([4]; 33.33 μM): no effects; transgenic protein expression (worms) ([4]; 33.33 μM): no changes were observed; axonal swelling ([4]; 33.33 μM, PLM neurons): reduced; sensory response to tail poke ([4]; mutant PolyQ animals, 3 days): improved the sensory response to tail poke in a dose dependent manner; concentration of optimal response ([4]; touch response): 33.33 µM; transgenic protein expression (flies) [5]: did not influence; rhabdomere loss ([5]; compared to DMSO): did protect against rhabdomere loss; cell viability after oxygen and glucose deprivation [6]: significant improvement in cell viability; CBF (cerebral blood flow) ([7]; 100 mg/kg i.p.): did not differ significantly; infarct volume (brain) ([7]; two intraperitoneal injections of 100 mg/kg at 17 and 3 hours before ischemia): significantly lower; Sglu/gal (log10 fold change) Score [8]: 0.16
